Assay results published in ChEMBL document CHEMBL1141648, “Aurora kinase A inhibitors: identification, SAR exploration and molecular modeling of 6,7-dihydro-4H-pyrazolo-[1,5-a]pyrrolo[3,4-d]pyrimidine-5,8-dione scaffold” (Bioorg Med Chem Lett, 2008).

What was measured:
[1] = biological target: T1, Aurora kinase A (Homo sapiens) (UniProt O14965); assay: Inhibition of Aurora A kinase at 50 uM
T1 sequence (whole entry): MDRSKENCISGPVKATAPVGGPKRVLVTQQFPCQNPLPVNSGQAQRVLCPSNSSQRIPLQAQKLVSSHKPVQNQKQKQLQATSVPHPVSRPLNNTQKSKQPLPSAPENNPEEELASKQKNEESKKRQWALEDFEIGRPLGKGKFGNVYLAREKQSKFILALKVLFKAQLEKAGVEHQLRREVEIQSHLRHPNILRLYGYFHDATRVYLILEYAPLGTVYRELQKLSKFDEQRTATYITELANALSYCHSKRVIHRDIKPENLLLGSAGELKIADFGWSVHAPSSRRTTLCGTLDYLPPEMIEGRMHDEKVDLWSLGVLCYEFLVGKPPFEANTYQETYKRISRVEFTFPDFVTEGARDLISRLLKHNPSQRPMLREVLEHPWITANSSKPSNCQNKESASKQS

[2] = biological target: T1, Aurora kinase A (Homo sapiens); assay: Inhibition of Aurora A kinase at 10 uM
Aurora kinase A = biological target: T2, Aurora kinase A (Homo sapiens, UniProt O14965); assay: Inhibition of Aurora A kinase
T2 sequence (O14965 whole entry): T1 sequence (whole entry)

Aurora kinase C = biological target: T3, Aurora kinase C (Homo sapiens, UniProt Q9UQB9); assay: Inhibition of Aurora C kinase
T3 sequence (Q9UQB9 whole entry): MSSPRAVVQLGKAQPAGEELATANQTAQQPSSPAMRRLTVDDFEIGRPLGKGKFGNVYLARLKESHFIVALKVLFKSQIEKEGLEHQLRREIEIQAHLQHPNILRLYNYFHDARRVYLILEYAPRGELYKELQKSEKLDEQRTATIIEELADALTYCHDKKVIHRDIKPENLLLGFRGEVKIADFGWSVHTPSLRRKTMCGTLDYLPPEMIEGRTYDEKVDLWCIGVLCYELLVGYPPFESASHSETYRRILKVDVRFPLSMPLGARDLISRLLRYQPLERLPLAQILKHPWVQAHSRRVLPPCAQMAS

SMILES	inhibition [1]	inhibition [2]	IC50 (Aurora kinase A)	Ki (Aurora kinase C)
O=C1c2[nH]c3cc(-c4ccco4)nn3c(=O)c2CN1CCCc1ccccc1	84.4%	16.4%	–	–
O=C1c2[nH]c3cc(-c4ccco4)nn3c(=O)c2CN1c1ccccc1	73.7%	7.6%	–	–
O=C1c2[nH]c3ccnn3c(=O)c2CN1Cc1ccccc1	14.5%	1.6%	–	–
O=C1c2[nH]c3cc(-c4ccco4)nn3c(=O)c2CN1CCN1CCOCC1	10.7%	0.9%	–	–
O=C1c2[nH]c3cc(-c4ccco4)nn3c(=O)c2CN1Cc1ccc(F)cc1	89.8%	24%	–	–
COc1ccc(CN2Cc3c([nH]c4cc(-c5ccco5)nn4c3=O)C2=O)cc1	88.2%	42.4%	8 µM	–
CO[C@@H](C(=O)N1Cc2n[nH]c(NC(=O)c3ccc(N4CCN(C)CC4)cc3)c2C1)c1ccccc1 [DANUSERTIB]	–	–	–	0.061 µM
COc1cc(CN2Cc3c([nH]c4cc(-c5ccco5)nn4c3=O)C2=O)cc(OC)c1	75.3%	10.1%	–	–
COc1ccccc1CN1Cc2c([nH]c3cc(-c4ccco4)nn3c2=O)C1=O	95.1%	51.6%	5.6 µM	–
O=C1c2[nH]c3cc(-c4ccco4)nn3c(=O)c2CN1Cc1ccc2c(c1)OCO2	75.2%	12.3%	–	–
O=C1c2[nH]c3cc(-c4ccco4)nn3c(=O)c2CN1Cc1cccc2ccccc12	79.9%	30.4%	–	–
O=C1c2nc3cc(-c4ccco4)nn3c(O)c2CN1Cc1ccccc1	90.2%	35.6%	15.1 µM	–
Cc1cc2[nH]c3c(c(=O)n2n1)CN(Cc1ccccc1)C3=O	20.8%	1.8%	–	–
CC(=O)Nc1cccc(CN2Cc3c([nH]c4cc(-c5ccco5)nn4c3=O)C2=O)c1	87.8%	35.8%	18.3 µM	–
O=C1c2c(c(=O)n3nc(-c4ccco4)cc3n2CCN2CCOCC2)CN1Cc1ccccc1	1.1%	0%	–	–

Second part, led by results:

inhibition [1]	inhibition [2]	IC50 (Aurora kinase A)	SMILES	Ki (Aurora kinase C)
83.9%	19.6%	–	O=C1c2[nH]c3cc(-c4ccco4)nn3c(=O)c2CN1CCc1ccccc1	–
70.8%	7.8%	–	COc1ccc(CN2Cc3c([nH]c4cc(-c5ccco5)nn4c3=O)C2=O)cc1OC	–
47.2%	25.9%	–	O=C1c2nc3cc(-c4ccccc4)nn3c(O)c2CN1Cc1ccccc1	–
72.3%	29.4%	–	O=C1c2[nH]c3cc(-c4cccs4)nn3c(=O)c2CN1Cc1ccccc1	–
90%	29.3%	15.2 µM	COc1cccc(CN2Cc3c([nH]c4cc(-c5ccco5)nn4c3=O)C2=O)c1	–
3.4%	2.3%	–	Cn1c2c(c(=O)n3nc(-c4ccco4)cc13)CN(Cc1ccccc1)C2=O	–
79.2%	21.6%	–	O=C1c2[nH]c3cc(-c4ccco4)nn3c(=O)c2CN1Cc1ccccn1	–
